The results in this text go back to patent US12653797B2, “Tablet and method for manufacturing same” (AYUMI PHARMACEUTICAL CORPORATION, priority 2020, dated 2026).

This data set can be described thus: Measurement of the particle diameter of the acetaminophen active pharmaceutical ingredients (dry laser diffraction). Type of data set: physicochemical. The conditions noted are these: dispersion air pressure 0.5 bar. The source says: There may be some differences between manufacturing lots. In addition, the volume-average particle diameter (MV) of the present acetaminophen active pharmaceutical ingredient can be in the range from 100 to 350 μm and may be in the range from 120 to 330 μm. There may be some differences between manufacturing lots. The particle size distribution in the present invention is acquired by evaluation of the volumetric distribution using dry particle diameter measurement by a laser diffraction method (Laser Micron Sizer LMS-2000e (Seishin Enterprise Co., Ltd.)). D50 is the particle diameter at the 50% accumulation of the individual volumes from the small diameter side of the particle size distribution, and is referred to as the median particle diameter. (3) Measurement of the Particle Diameter of the Acetaminophen Active Pharmaceutical Ingredients The acetaminophen active pharmaceutical ingredients were subjected to dry measurement of the particle diameter by a laser diffraction method. A Laser Micron Sizer LMS-2000e (Seishin Enterprise Co., Ltd.) was used for measurement of the particle size distribution. The measurement was carried out at a dispersion compressed air pressure of 0.5 bar.
With `CC(=O)Nc1ccc(O)cc1` [AA API d, acetaminophen], the D10 is reported as 75 μm, the “D50 (median particle diameter)” value was 419 μm, the D90 came to 855 μm and the “MV (volume-average particle diameter)” value was 452 μm.
Regarding `CC(=O)Nc1ccc(O)cc1` [AA API e, acetaminophen], the D10 is on record as 5.7 μm, the “D50 (median particle diameter)” value is 26 μm, the D90 was 116 μm and the “MV (volume-average particle diameter)” value is recorded as 46 μm.
Consider `CC(=O)Nc1ccc(O)cc1` [AA API g, acetaminophen], for which the D10 was found to be 125 μm, the “D50 (median particle diameter)” value came to 288 μm, the D90 is given as 516 μm and the “MV (volume-average particle diameter)” value worked out at 306 μm.
For `CC(=O)Nc1ccc(O)cc1` [AA API a, acetaminophen], in that order: 73 μm, 224 μm, 404 μm and 234 μm.
For the molecule `CC(=O)Nc1ccc(O)cc1` [AA API f, acetaminophen], the D10 is reported as 42 μm, the “D50 (median particle diameter)” value was determined as 202 μm, the D90 is listed as 426 μm and the “MV (volume-average particle diameter)” value was 222 μm.
Consider `CC(=O)Nc1ccc(O)cc1` [AA API c, acetaminophen], for which the D10 is recorded as 27 μm, the “D50 (median particle diameter)” value is 147 μm, the D90 is recorded as 357 μm and the “MV (volume-average particle diameter)” value came to 173 μm.
Taken in the same sequence, the figures for `CC(=O)Nc1ccc(O)cc1` [AA API b, acetaminophen] were 62 μm, 191 μm, 353 μm and 202 μm.
